Laboratory results as given in patent US20060240014A1, “Methods and compounds for the treatment of vascular stenosis” (Beth Israel Deaconess Medical Center, priority 2003, published 2006).
Structures can show the parent of a compound that is named as a salt.

Test system: human aortic vascular smooth muscle cells (HASOM cells)
Assay: hPDGF-BB induced migration of human aortic vascular smooth muscle cells (Boyden chamber)
Format: cell-based
Details: 20 ng/ml hPDGF-BB, 48 hours drug pre-incubation, 12 hours migration, dose dependent (FIG. 1)
Procedure: Drug concentrations for G are in ng/mL and for R are in pg/mL. The first lane has no PDGF added and the first two lanes have no drug compounds added. The results are expressed as means±S.E.M. of triplicate readings.
In vitro studies were performed to examine the dose response of Gleevec and rapamycin on human aortic vascular smooth muscle cells (HASOM cells). Cell migration was measured using a 24-well Boyden-chamber (Corning Costar Corp, Cambridge, Mass.). […] These membranes were coated with 0.1% gelatin for eight hours, then aspirated and allowed to dry for two hours. The cells were allowed to grow to 70% confluence and then treated with media containing 1% fetal calf serum and drug compounds (Gleevec alone, rapamycin alone and Gleevec and rapamycin together at the concentrations indicated in FIG. 1) for 48 hours prior to the migration assay. […] The cells were harvested in 0.05% trypsin, resuspended in M-199 media, and seeded on the coated membrane at a concentration of 4000 cells per well with Gleevec and/or rapamycin. The M-199 media containing 0.5% BSA and 20 ng/ml human PDGF-B (hPDGF-BB) was placed in the bottom Boyden chamber. Cells were incubated in 5% CO2 at 37° C. for 12 hours and the cells lying on the upper surface of the membrane were scraped. […] Cell migration was quantified by counting the cells in five random high-power fields on the lower surface of the membrane. […]

Cc1ccc(NC(=O)c2ccc(CN3CCN(C)CC3)cc2)cc1Nc1nccc(-c2cccnc2)n1 [Gleevec, imatinib mesylate]
inhibition of PDGF induced migration of HASOM cells: potently inhibited
